Data as given in article PMC10144566, “Pharmacokinetic Profile Evaluation of Novel Combretastatin Derivative, LASSBio-1920, as a Promising Colorectal Anticancer Agent” (Pharmaceutics, 2023).
Entries after “also recorded” stand apart in the source; their conditions may differ. Where two headings read alike, the source gives them in different places.

Assays:
N-87, gastric carcinoma = assay: MTT cytotoxicity assay, N-87; conditions: Homo sapiens, 72 h, read-out: IC50 (95% CI) N-87
Procedure: (§3) The cytotoxicity of the compounds was determined using the MTT assay [13]. Cells were seeded in 96-well plates as follows: 0.7 × 10^5 cells/well for adherent cancer cells, 0.3 × 10^5 cells/well for suspended cancer cells, and 0.2 × 10^5 cells/well for HPBMCs. […] The control group was treated with the vehicle. […] After incubation, the supernatant was decanted and replaced with fresh medium containing MTT (0.5 mg/mL).
(§4) Data were presented as mean ± standard error of the mean (SEM) from three independent experiments performed in triplicate, calculated using Prism 8.0 (GraphPad/Intuitive Software for Science, San Diego, CA, USA). The IC50 of the compounds was obtained using a non-linear regression of the cytotoxicity curves.

PC-9 cells = assay: Annexin V/7-AAD apoptosis assay by flow cytometry, PC-9; format: cell-based, human; conditions: 0.75 µM, 48 h, negative control 2.40 ± 0.17%
Procedure: (§1) The control group received the same amount of vehicle, of which the concentration was kept constant (below 0.5%). Cell treatments were completed in triplicate. CA4 (0.2 or 0.5 µM) was used as the positive control. Stock solutions of the compounds tested were dissolved in DMSO and diluted in the culture medium to obtain the desired concentrations.
(§2) Apoptosis assay: Apoptosis was analyzed using Annexin V/7-AAD staining followed by flow cytometry. Cells were collected and stained using an Annexin V-PE/7-AAD apoptosis detection kit. Annexin V binds to phosphatidylserine (PS) in apoptosis cells as PS translocates from the inner to the outer leaflet of the cytoplasmic membrane. 7-AAD is a fluorescent intercalator of DNA impermeable to the cell, providing a reliable indication of membrane integrity. Double staining distinguishes between viable, early apoptotic, necrotic, and late apoptotic cells. The resulting fluorescence of annexin V-PE at 583 nm and 7-AAD at 680 nm of every sample was analyzed by flow cytometry. The 7-AAD-positive and annexin V-negative cells were considered necrotic. Annexin V-positive cells (7-AAD-positive and 7-AAD-negative cells) were classified as apoptotic. 7-AAD-negative and annexin V-negative cells were deemed viable.

PAMPA-BBB permeability = format: in vitro ADME; conditions: for Papp: PAMPA
Procedure: (§5) For this, two 96-well plates were placed one above the other, and between them, an artificial hydrophobic polyvinylidene fluoride (PVDF) membrane, which was impregnated with a lipid solution. The top plate works as the donor compartment and the bottom one as the receiver compartment.
Parallel artificial membrane permeation assay for the blood–brain barrier (PAMPA-BBB): It was performed according to the previously reported [26] method established by Lu and coworkers [27].

[1] = In vitro plasma stability; format: in vitro ADME; conditions: rat plasma, 37 °C, 100 μM
Procedure: The in vitro stability of the test compounds was studied in rat plasma. Blood from different Wistar rats was centrifuged with heparin at 20 °C for 15 min at 2000 rpm to separate the plasma, which was diluted to 80% with 0.05 M phosphate-buffered saline (PBS, pH 7.4) at 37 °C [23]. The test compounds were added to 200 µL of preheated plasma solution to yield a final concentration of 100 μM. The final concentration of DMSO in the incubation mixture was 0.5%. The assays were performed with agitation in a water bath at 37 °C and conducted in triplicate. Samples were taken at 0, 30, 60, and 240 min. After each sampling time, 500 µL of cold methanol was added to the mixture immediately, followed by 500 µL of cold acetonitrile. The samples were mixed and centrifuged at room temperature for 15 min at 13,000 rpm. The supernatant was analyzed by HPLC (acetonitrile/water, 7:3, with 0.1% trifluoroacetic acid) using an internal standard (4-acetylbiphenyl—final concentration of 20 µM).

PAMPA-GIT permeability = format: in vitro ADME; conditions: PAMPA-GIT, 5 h, room temperature; read-out: Pe (Experimental)
From the text: as §5
Parallel artificial membrane permeation assay for gastrointestinal tract (GIT-PAMPA): 1% (w/v) phosphatidylcholine was mixed with dodecane as a lipid solution to impregnate the PVDF membrane between the donor and receiver plates to stimulate intestinal permeability. […] A total of 180 µL of the mixture of PBS and DMSO (v/v 95:5) was added to the recipient plate, and 180 µL of the test solution was added to the donor plate. Immediately and carefully, the donor plate was placed above the receiver plate and incubated for 5 h at room temperature. The solution captured on the receptor plate was removed and subsequently analyzed by a UV detector (SpectraMax 5®—Molecular Devices, Sao Jose, CA, USA). The experiments were performed in quadruplicate.

SF-295, glioblastoma = assay: MTT cytotoxicity assay, SF-295; conditions: Homo sapiens, SF-295, 72 h, read-out: IC50 (95% CI) SF-295
Procedure: as §3, §4

[2] = Microsomal (metabolic) stability; format: in vitro ADME; conditions: Wistar rat liver microsomes, with or without NADPH-generating system, 100 µM, up to 120 min
Procedure: Livers were obtained from male Wistar rats (250 and 300 g) from the Federal University of Ceara (UFC, Fortaleza, Brazil). The livers were maintained in an ice bath and washed with 3 volumes of 0.05 M Tris-HCl and 0.25 M sucrose, pH 7.4. They were then sliced and homogenized in a Potter–Elvehjem glass-Teflon homogenizer. The homogenates were centrifuged for 30 min at 900× g at 4 °C, and the supernatant fraction was centrifuged at 10,000× g for 1 h at 4 °C. The pellet was discarded, and the supernatant fraction was centrifuged at 100,000× g for 1 h at 4 °C. The microsomal fraction in the resulting pellet was recovered. The pellet was washed and resuspended twice in 0.05 M Tris-HCl, condensed into a pellet again by centrifugation for 1 h at 100,000× g at 4 °C and, finally, resuspended in the Tris-HCl buffer. Metabolic assays were carried out with frozen microsomes in Tris–HCl buffer, stored at –80 °C. […]
The final concentration of DMSO in the incubation mixture was 0.5%. […] The supernatant was analyzed by HPLC (acetonitrile/water 7:3 with 0.1% trifluoroacetic acid) using an internal standard (4-acetylbiphenyl—final concentration of 20 µM). […]

HCT-116 cells = assay: Annexin V/7-AAD apoptosis assay by flow cytometry, HCT-116; format: cell-based, human; conditions: 6 µM, 48 h, negative control 5.14 ± 0.61%
Procedure: as §1, §2

[3] = Chemical stability in buffer (HPLC); format: physicochemical; conditions: 0–240 min

Papp (PAMPA-BBB permeability; PAMPA-BBB classification: absorbed by the Central Nervous System, read-out: CNS Permeability): > 3.47 ×10⁻⁶ cm/s
Papp (PAMPA-BBB permeability; PAMPA-BBB, mean, read-out: Pe (Experimental Mean)): 11.5 ×10⁻⁶ cm/s
Pe (Experimental Mean) (PAMPA-BBB permeability; PAMPA-BBB, mean): 11.48 10–6 cm/s
Pe1 (Experimental) (PAMPA-BBB permeability; PAMPA-BBB, replicate 1): 12.43 10–6 cm/s
Pe2 (Experimental) (PAMPA-BBB permeability; PAMPA-BBB, replicate 2): 10.53 10–6 cm/s
Papp at 5 h, 0.5 mM (PAMPA-GIT permeability): 6.6 ×10⁻⁶ cm/s
Structure (SMILES): COc1cc(C(=O)N/N=C/c2cc3ccccc3s2)cc(OC)c1OC [LASSBio-1920, (E)-N′-(Benzo[b]thiophen-2-ylmethylene)-3,4,5-trimethoxybenzohydrazide]
IC50 (N-87, gastric carcinoma): 0.44 µM
apoptotic events PC-9 cells (PC-9 cells): 15.49 ± 1.28%
plasma stability [1]: stable at all time points of the assay; also recorded: not metabolized by plasma esterases, exhibiting substantial stability; also recorded: has plasma stability
IC50 (SF-295, glioblastoma): 0.11 µM
metabolic stability in liver microsomal fraction [2]: significantly metabolized by the microsomal fraction only in the presence of an NADPH-generating system
apoptotic HCT-116 cells (HCT-116 cells): 12.62 ± 2.26%
chemical stability at pH 2 ([3]; HCl buffer pH 2, 37 °C): unstable at pH 2; also recorded: unstable in an acid medium (HCl buffer, pH 2)
chemical stability at pH 7.4 ([3]; phosphate buffer pH 7.4, 37 °C): stable at pH 7.4 at all time points; also recorded: stable in a practically neutral medium (phosphate buffer, pH 7.4)
